Laboratory results reported in patent publication USRE47245E1, “Pro-angiogenic peptides and uses thereof” (Susavion Biosciences, Inc., priority 2006, dated 2019).
Where no end group is shown, it is not given here.

What was measured:
[1] = test system: 786-0 human renal cell adenocarcinoma cell line; test: Pro-angiogenic activity: growth of xenograft tumor in nude mouse; type: in vivo, nude mouse (nu/nu)
Protocol: Tumors require vascularization to obtain nutrients to support growth. Therefore, stimulation of growth of a tumor in response to administration of a construct of this invention is an indication of angiogenesis. For this example, a xenograph model system with the nude mouse (nu/nu) was used to determine the effect of peptide on growth of 786-0 human renal cell adenocarcinoma cell line injected into the flank of a mouse so as to induce a tumor. After the tumor was established, peptide was injected subcutaneously on alternate days. The weight of the tumor was estimated by calculation of the volume.
FIG. 4 illustrates data resulting from assays for pro-angiogenic activity for one embodiment of the invention. […] The peptide was also assayed in combination with Sorafenib, an anti-angiogenic drug.

[2] = test system: macrophages in PBMC cultures; test: Stimulation of phagocytosis: macrophages engulfing microspheres opsonized with anti-HIV antibodies; type: cell-based, human; conditions: PBMC cultures pretreated; control cultures 0 to 3 beads
Protocol: The activity of the peptides to stimulate phagocytosis was assessed by the ability of macrophages to engulf microspheres opsonized with anti-HIV antibodies. A biotin-tagged peptide epitope of a surface protein of HIV-1 was bound to streptavidin on the surface of the beads. An antibody preparation that was raised against this epitope was then bound to the HIV peptide. The beads were then washed and presented to PBMC cultures pretreated with peptides. Macrophages in cultures not treated with peptides had little, if any, phagocytic activity. In multiple control cultures, the number of beads within a macrophage-like cell ranged from 0 to 3. In the cultures treated with peptide constructs containing four copies of the peptide sequences WNSTL (SEQ ID NO:1), NQHTPR (SEQ ID NO:2), or VQATQS (SEQ ID NO:8), an average of 10 beads were counted in each phagocytic cell, with no substantial difference between peptide constructs.

[3] = test system: peripheral blood mononuclear cells (PBMCs); test: Regulation of cytokine release: cytokine antibody array on medium of PBMC cultures; type: cell-based, human; conditions: for Relative concentration of Eotaxin / Relative concentration of Eotaxin-2 / Relative concentration of IL-12p40 / Relative concentration of IL-12p70 / Relative concentration of IL-15 / Relative concentration of IL-16 / Relative concentration of IL-17 / Relative concentration of IL-21 / Relative concentration of M-CSF / Relative concentration of MCP-2 / Relative concentration of MIG / Relative concentration of MIP-1b / Relative concentration of TIMP-2 / Relative concentration of TNF-β / Relative concentration of sTNF RII / Relative concentration of I-309 / Relative concentration of IL-4 / Relative concentration of IL-6 / Relative concentration of IL-10 / Relative concentration of IP-10 / Relative concentration of MCP-1 / Relative concentration of PDGF-BB / Relative concentration of TGF-β1 / Relative concentration of TNF-α / Relative concentration of sTNF RI / Relative concentration of GM-CSF / Relative concentration of ICAM-1 / Relative concentration of IFN-γ / Relative concentration of IL-1α / Relative concentration of GCSF / Relative concentration of IL-1β / Relative concentration of IL-6sR / Relative concentration of IL-7 / Relative concentration of IL-8 / Relative concentration of IL-11 / Relative concentration of RANTES: construct 100 nM; for relative IL-6 concentration: in one experiment, untreated control 98
Protocol: To determine whether the peptides regulate induction or inhibition of release of cytokines, cultured peripheral blood mononuclear cells (PBMCs) were treated with one peptide embodiment of the invention and, after 4 hour incubation, the medium was collected and assayed for changes in the amounts of 40 different cytokines. The peptide construct containing four copies of WNSTL (SEQ ID NO:1), illustrated in FIG. 2A, was added at a concentration of 100 nM in each of the assays. The PBMC cultures were established with cells from Cellular Technology, Ltd. (Shaker Heights, Ohio). Approximately 3 million cells of frozen human PBMCs were thawed at 37° C. and transferred to a 50 mL conical tube where 8 mL of wash medium were added slowly. Then an additional 8 mL were added and swirled to mix. The cells were then centrifuged at 330 g for 10 min, the supernatant was removed and the pellet was resuspended in 10 mL wash medium and centrifuged as above. The washed cells were then resuspended in RPMI 1640 medium containing 10% FBS to about 6 million cells per mL and 100 μL of the suspension were added into each well of a 96-well microtiter plate and incubated overnight at 37° C. in humidified 5% CO2. After 24 hr, the medium was replaced with 200 μL fresh RPMI 1640 medium containing 10% FBS and incubated at 37° C. in humidified 5% CO2 for 2 days. For the data shown in TABLE 1, an aliquot of the peptide construct was added to samples in duplicate at a final concentration of 5 nM or 100 nM and incubated at 37° C. in humidified 5% CO2 for 4 hr. For other experiments (data not included), the incubation was continued for 24 hr. The medium was then removed and stored at […]. The samples were analyzed for production of cytokines. One set of control cells was not treated with an experimental agent. A second set of control cells was treated with LPS, the agent commonly used to induce production of a variety of inflammatory cytokines.
Assays of cytokine levels in samples of culture media were performed using methods developed by RayBiotech, Inc. (Norcross, Ga.). In this technology, membrane arrays of antibodies against cytokines were incubated with samples of media. After washing, the array was incubated with a cocktail of all antibodies tagged with biotin. The membrane was then washed free of unbound antibodies and incubated with streptavidin labeled with a fluorescent dye. After a final wash, the membrane arrays were read in a fluorescence detector and the intensities of the spots quantitated to obtain relative values.
One set of control samples was not treated with peptide and a second set of control samples was treated with lipopolysaccharide (LPS) in the absence of the peptide construct. The structure of the construct is illustrated in FIG. 2A. […] The decrease in IL-8 concentration in the peptide-treated sample, as compared with the amount of IL-8 in the sample treated with the proto-typical inflammatory agent LPS, is particularly notable. […] The increase in the proangiogenic PDGF-BB and the decrease in the inflammatory IL-8, without concomitant stimulation of inflammation, are of particular importance with respect to wound healing. […]

## CNC(=O)c1cc(Oc2ccc(NC(=O)Nc3ccc(Cl)c(C(F)(F)F)c3)cc2)ccn1 [Sorafenib, reference compound]
[1]; in combination with the WNSTL construct
  effect on the peptide-enhanced tumor growth: strongly (but not completely) inhibited

## IFN-γ: cytokine Interferon-gamma used as comparison treatment [reference compound]
[2]
  average beads counted in each phagocytic cell: roughly 15 beads

## NQHTPR: branched construct: four copies of core sequence NQHTPR, each via GGGS linker on tri-lysine framework (also: tetramer: four copies each via GGGS linker on tri-lysine framework (branched))
[2]
  average beads counted in each phagocytic cell: 10 beads
[3]; PBMCs in serum, 4 hr
  Relative concentration of Eotaxin: 57
  Relative concentration of Eotaxin-2: 310
  Relative concentration of IL-12p40: 45
  Relative concentration of IL-12p70: 65
  Relative concentration of IL-15: 146
  Relative concentration of IL-16: 8
  Relative concentration of IL-17: 14
  Relative concentration of IL-21: 200
  Relative concentration of M-CSF: 116
  Relative concentration of MCP-2: 90
  Relative concentration of MIG: 100
  Relative concentration of MIP-1b: 777
  Relative concentration of TIMP-2: 110
  Relative concentration of TNF-β: 84
  Relative concentration of sTNF RII: 26

## VQATQS: construct containing four copies of core sequence VQATQS (also: four copies, branched construct)
[2]
  average beads counted in each phagocytic cell: 10 beads
[3]; PBMCs in serum, 4 hr
  Relative concentration of Eotaxin-2: 401
  Relative concentration of I-309: 101
  Relative concentration of IL-4: 64
  Relative concentration of IL-6: 167
  Relative concentration of IL-10: 67
  Relative concentration of IL-12p40: 74
  Relative concentration of IL-12p70: 112
  Relative concentration of IL-15: 134
  Relative concentration of IL-16: 10
  Relative concentration of IL-17: 21
  Relative concentration of IL-21: 90
  Relative concentration of IP-10: 334
  Relative concentration of M-CSF: 90
  Relative concentration of MCP-1: 1,966
  Relative concentration of PDGF-BB: 83
  Relative concentration of TGF-β1: 83
  Relative concentration of TIMP-2: 175
  Relative concentration of TNF-α: 98
  Relative concentration of TNF-β: 91
  Relative concentration of sTNF RI: 75
  Relative concentration of sTNF RII: 20

## VSNQH: construct containing four copies of core sequence VSNQH (also: four copies of core sequence, branched construct)
[3]; PBMCs in serum, 4 hr
  Relative concentration of Eotaxin: 47
  Relative concentration of Eotaxin-2: 470
  Relative concentration of GM-CSF: 96
  Relative concentration of ICAM-1: 70
  Relative concentration of IFN-γ: 170
  Relative concentration of IL-1α: 322
  Relative concentration of IL-12p40: 52
  Relative concentration of IL-12p70: 117
  Relative concentration of IL-15: 137
  Relative concentration of IL-17: 21
  Relative concentration of IL-21: 130
  Relative concentration of IP-10: 377
  Relative concentration of MCP-2: 97
  Relative concentration of MIG: 94
  Relative concentration of PDGF-BB: 82
  Relative concentration of TIMP-2: 285
  Relative concentration of TNF-α: 138
  Relative concentration of TNF-β: 93

## WNSTL: branched construct: four copies of core sequence WNSTL, each via GGGS linker on tri-lysine framework, C-terminal amide (also: four copies, each via GGGS linker on tri-lysine framework, C-terminal amide of construct)
[2]
  average beads counted in each phagocytic cell: 10 beads
[1]; 0.05 nmole/gm subcutaneously on alternate days, tumor weight estimated from volume
  growth of the tumor enhanced over the control, factor: 1.7
[3]; 4 hr
  decrease in concentration of several cytokines as compared to untreated control samples: more than a two-fold decrease
[3]; PBMCs in serum, 4 hr
  Relative concentration of Eotaxin-2: 109
  Relative concentration of GCSF: 50
  Relative concentration of ICAM-1: 44
  Relative concentration of IFN-γ: 103
  Relative concentration of IL-1β: 120
  Relative concentration of IL-4: 97
  Relative concentration of IL-6sR: 32
  Relative concentration of IL-7: 93
  Relative concentration of IL-8: 144
  Relative concentration of IL-10: 43
  Relative concentration of IL-11: 49
  Relative concentration of IL-12p40: 228
  Relative concentration of IL-12p70: 131
  Relative concentration of MCP-1: 968
  Relative concentration of PDGF-BB: 159
  Relative concentration of RANTES: 145
  Relative concentration of TIMP-2: 25
  Relative concentration of sTNF RI: 78
[3]; compared to untreated controls, 4 hr
  cytokines induced to higher concentrations: PDGF-BB, IL-1β, IL-4, IL-1, IL-12 and RANTES: more than two-fold higher
[3]
  relative IL-6 concentration: 93

## lipopolysaccharide [LPS, reference compound]
[3]; PBMCs in serum, 4 hr
  Relative concentration of IL-2: 90
  Relative concentration of IL-3: 132
  Relative concentration of IL-13: 125
  Relative concentration of MIP-1a: 237
  Relative concentration of MIP-1d: 38
  change in the amount of the inflammatory cytokine IL-6 compared to untreated control samples: significantly elevated
  Relative concentration of Eotaxin: 31
  Relative concentration of Eotaxin-2: 469
  Relative concentration of GCSF: 120
  Relative concentration of GM-CSF: 106
  Relative concentration of I-309: 39
  Relative concentration of ICAM-1: 53
  Relative concentration of IFN-γ: 158
  Relative concentration of IL-1α: 246
  Relative concentration of IL-1β: 47
  Relative concentration of IL-4: 49
  Relative concentration of IL-6: 4,375
  Relative concentration of IL-6sR: 52
  Relative concentration of IL-7: 178
  Relative concentration of IL-8: 840
  Relative concentration of IL-10: 218
  Relative concentration of IL-11: 26
  Relative concentration of IL-12p40: 46
  Relative concentration of IL-12p70: 89
  Relative concentration of IL-15: 104
  Relative concentration of IL-16: 2
  Relative concentration of IL-17: 10
  Relative concentration of IP-10: 268
  Relative concentration of M-CSF: 59
  Relative concentration of MCP-2: 177
  Relative concentration of MIG: 66
  Relative concentration of MIP-1b: 1,828
  Relative concentration of PDGF-BB: 56
  Relative concentration of RANTES: 114
  Relative concentration of TGF-β1: 62
  Relative concentration of TIMP-2: 92
  Relative concentration of TNF-α: 93
  Relative concentration of TNF-β: 95
  Relative concentration of sTNF RI: 58
  Relative concentration of sTNF RII: 26
[3]
  relative IL-6 concentration: 5,879
